Source: patent US9193736B2, “PDE 10a inhibitors for the treatment of type II diabetes” (Janssen Pharmaceutica, NV, priority 2013, dated 2015)
Where a name gives a salt, the structure may show the parent alone.

Columns and labels:
[1] = target: Rat recombinant PDE10a (rPDE10a) (Rattus norvegicus (Rat), UniProt Q9QYJ6); experiment: In vitro assay PDE10a: rat recombinant PDE10a SPA with 3H-cAMP substrate, IC50; format: biochemical; conditions: 60 nM cAMP, read-out: rPDE10a2 IC50
Protocol: In Vitro Assay PDE10a Rat recombinant PDE10a (rPDE10a) was expressed in Sf9 cells using a recombinant rPDE10a baculovirus construct. Cells were harvested after 48 h of infection and the rPDE10a protein was purified by metal chelate chromatography on Ni-sepharose 6FF. Tested compounds were dissolved and diluted in 100% DMSO to a concentration 100 fold of the final concentration in the assay. […] The reaction was incubated for 60 min at rt. After incubation, the reaction was stopped with 20 μL of 17.8 mg/mL PDE SPA beads. […] For blank values the enzyme was omitted from the reaction and replaced by incubation buffer.

[2] = target: Human recombinant PDE10A2 (Homo sapiens (Human), UniProt Q9Y233); experiment: In vitro hPDE10a: human recombinant PDE10A2 scintillation proximity assay, IC50; format: biochemical; conditions: human recombinant PDE10A2, SPA, 60 nM cAMP; read-out: hPDE10a2 IC50
Protocol: Cells were harvested and the phosphodiesterase protein was purified by metal chelate chromatography on Ni-sepharose 6FF. The affinity of the compounds of Formula (I) for phophodiesterases (PDE) was measured by a scintillation proximity assay (SPA). PDE Yttrium Silicate SPA beads allow PDE activity to be measured by direct binding of the primary phosphate groups of non-cyclic AMP or GMP to the beads via a complex iron chelation mechanism. The amount of bound tritiated product ([^3H]-AMP) is measured by liquid scintillation counting. The compounds were dissolved and diluted in 100% DMSO in polystyrene plates to a concentration of 100-fold the final concentration in the assay. […] After incubation, the reaction was stopped with 20 μL of stop solution, consisting of PDE SPA beads (17.8 mg beads/mL in 18 mM zinc sulphate). […] To measure the low control, no enzyme was added to the reaction mixture. Data were calculated as the percentage of inhibition of total activity measured in the absence of test compound (% control). […] For compounds tested more than once, the data points were aggregated.

Chain of Human recombinant PDE10A2 (Q9Y233 267-1055): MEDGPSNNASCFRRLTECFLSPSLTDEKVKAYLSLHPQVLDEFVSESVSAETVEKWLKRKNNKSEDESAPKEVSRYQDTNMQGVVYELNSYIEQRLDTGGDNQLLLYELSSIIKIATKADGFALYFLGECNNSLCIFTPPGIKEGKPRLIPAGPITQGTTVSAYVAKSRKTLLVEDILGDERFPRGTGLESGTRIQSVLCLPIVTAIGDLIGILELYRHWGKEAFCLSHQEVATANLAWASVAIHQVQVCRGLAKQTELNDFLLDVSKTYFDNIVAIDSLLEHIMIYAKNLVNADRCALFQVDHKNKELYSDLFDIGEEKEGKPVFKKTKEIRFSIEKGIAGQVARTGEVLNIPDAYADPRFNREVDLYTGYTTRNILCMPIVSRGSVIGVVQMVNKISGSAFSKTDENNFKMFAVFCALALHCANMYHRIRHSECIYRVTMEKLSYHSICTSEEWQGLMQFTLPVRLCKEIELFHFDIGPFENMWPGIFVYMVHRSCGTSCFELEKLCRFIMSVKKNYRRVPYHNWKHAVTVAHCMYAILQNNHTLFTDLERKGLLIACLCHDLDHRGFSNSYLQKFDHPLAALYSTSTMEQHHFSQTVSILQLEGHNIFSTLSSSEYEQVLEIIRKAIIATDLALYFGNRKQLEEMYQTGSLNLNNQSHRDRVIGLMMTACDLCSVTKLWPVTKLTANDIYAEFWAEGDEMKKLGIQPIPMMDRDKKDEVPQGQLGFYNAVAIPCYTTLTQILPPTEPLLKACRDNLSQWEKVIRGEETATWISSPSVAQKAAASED
Chain of Rat recombinant PDE10a (rPDE10a) (Q9QYJ6 whole entry): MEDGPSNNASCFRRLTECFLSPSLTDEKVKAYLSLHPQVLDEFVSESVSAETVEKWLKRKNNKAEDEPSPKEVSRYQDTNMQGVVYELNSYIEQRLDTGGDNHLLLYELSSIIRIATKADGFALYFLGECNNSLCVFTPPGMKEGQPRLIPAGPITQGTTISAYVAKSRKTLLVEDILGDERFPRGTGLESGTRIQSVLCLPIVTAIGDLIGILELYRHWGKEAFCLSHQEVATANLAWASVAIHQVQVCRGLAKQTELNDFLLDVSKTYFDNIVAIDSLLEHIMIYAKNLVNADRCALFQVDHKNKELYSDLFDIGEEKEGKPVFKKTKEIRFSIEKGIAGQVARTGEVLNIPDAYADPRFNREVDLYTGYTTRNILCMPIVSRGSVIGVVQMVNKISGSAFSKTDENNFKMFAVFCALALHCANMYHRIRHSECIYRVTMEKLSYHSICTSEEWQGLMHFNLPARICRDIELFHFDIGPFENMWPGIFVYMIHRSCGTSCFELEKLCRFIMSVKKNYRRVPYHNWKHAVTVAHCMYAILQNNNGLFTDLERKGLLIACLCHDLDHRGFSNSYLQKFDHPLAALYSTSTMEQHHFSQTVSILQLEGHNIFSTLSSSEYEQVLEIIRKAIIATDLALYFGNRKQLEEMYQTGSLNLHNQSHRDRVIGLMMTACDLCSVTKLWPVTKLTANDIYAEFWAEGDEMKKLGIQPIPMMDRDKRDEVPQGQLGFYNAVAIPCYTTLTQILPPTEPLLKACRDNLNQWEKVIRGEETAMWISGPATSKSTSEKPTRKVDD

SMILES | IC50 [1] [nM] | IC50 [2] [nM]
CS(=O)(=O)NC(=O)Nc1ccc(-c2c(CCc3ccc4ccccc4n3)nc3c(N4CCOCC4)ccnn23)cc1 [Cpd 51, N-({4-[8-Morpholin-4-yl-2-(2-quinolin-2-ylethyl)imidazo[1,2-b]pyridazin-3-yl]phenyl}carbamoyl)methanesulfonamide] | 4 | 6
N#Cc1ccc(C#Cc2nc3c(N4CCOCC4)ccnn3c2-c2ccc(C(=O)O)cc2)nc1 [Cpd 96, 4-(2-((5-Cyanopyridin-2-yl)ethynyl)-8-morpholinoimidazo[1,2-b]pyridazin-3-yl)benzoic acid] | 31 | 22
O=c1[nH]nnn1-c1ccc(-c2c(CCc3ccc4ccccc4n3)nc3c(N4CCOCC4)ccnn23)cc1 [Cpd 62, 1-(4-(8-Morpholino-2-(2-(quinolin-2-yl)ethyl)imidazo[1,2-b]pyridazin-3-yl)phenyl)-1H-tetrazol-5(4H)-one] | 9 | 4
CS(=O)(=O)NC(=O)CCc1ccc(-c2c(/C=C/c3ccc4ccccc4n3)nc3c(N4CCOCC4)ccnn23)cc1 [Cpd 132, (E)-N-(Methylsulfonyl)-3-(4-(8-morpholino-2-(2-(quinolin-2-yl)vinyl)imidazo[1,2-b]pyridazin-3-yl)phenyl)propanamide trifluoroacetic acid salt] | 15 | 11
O=C1NC(=O)C(c2ccc(-c3c(CCc4ccc5ccccc5n4)nc4c(N5CCOCC5)ccnn34)cc2)O1 (centres unmarked) [Cpd 70, 5-(4-(8-Morpholino-2-(2-(quinolin-2-yl)ethyl)imidazo[1,2-b]pyridazin-3-yl)phenyl)oxazolidine-2,4-dione] | 7 | 4
O=C(O)c1cc2ccccc2nc1/C=C/c1cn2nccc(N3CCOCC3)c2n1 [Cpd 144, 2-[(E)-2-(8-Morpholin-4-ylimidazo[1,2-b]pyridazin-2-yl)ethenyl]quinoline-3-carboxylic acid] | < 1 | < 1
CS(=O)(=O)NC(=O)CCc1ccc(-c2c(/C=C/c3ccc4ccccc4n3)nc3c(N4CCOCC4)ccnn23)cn1 [Cpd 129, (E)-N-(Methylsulfonyl)-3-(5-(8-morpholino-2-(2-(quinolin-2-yl)vinyl)imidazo[1,2-b]pyridazin-3-yl)pyridin-2-yl)propanamide trifluoroacetic acid salt] | 6 | 2
O=C(O)c1cccc2nc(/C=C/c3nc4c(N5CCOCC5)ccnn4c3-c3cccnc3)ccc12 [Cpd 137, (E)-2-(2-(8-Morpholino-3-(pyridin-3-yl)imidazo[1,2-b]pyridazin-2-yl)vinyl)quinoline-5-carboxylic acid sodium salt] | 1 | 3
O=C(O)c1ccc(-c2c(C#Cc3ccccn3)nc3c(N4CCOCC4)ccnn23)cc1 [Cpd 86, 4-(8-Morpholino-2-(pyridin-2-ylethynyl)imidazo[1,2-b]pyridazin-3-yl)benzoic acid] | 2 | 2
CC(C)[C@H](NC(=O)c1ccc(-c2c(/C=C/c3ccc4ccccc4n3)nc3c(N4CCOCC4)ccnn23)cc1)C(=O)O [Cpd 73, (S,E)-3-Methyl-2-(4-(8-morpholino-2-(2-(quinolin-2-yl)vinyl)imidazo[1,2-b]pyridazin-3-yl)benzamido)butanoic acid trifluoroacetic acid salt] | 7 | 8
O=C(O)CC1CCN(c2c(/C=C/c3ccc4ccccc4n3)nc3c(N4CCOCC4)ccnn23)CC1 [Cpd 156, (E)-2-(1-(8-Morpholino-2-(2-(quinolin-2-yl)vinyl)imidazo[1,2-b]pyridazin-3-yl)piperidin-4-yl)acetic acid] | 7 | 7
O=C(O)[C@@H]1CCCN1C(=O)c1ccc(-c2c(/C=C/c3ccc4ccccc4n3)nc3c(N4CCOCC4)ccnn23)cc1 [Cpd 71, (S,E)-1-(4-(8-Morpholino-2-(2-(quinolin-2-yl)vinyl)imidazo[1,2-b]pyridazin-3-yl)benzoyl)pyrrolidine-2-carboxylic acid trifluoroacetic acid salt] | 8 | 6
c1ccc2nc(SCc3nc4c(N5CCOCC5)ccnn4c3-c3ccc(-c4nnn[nH]4)nc3)ccc2c1 [Cpd 32, 4-(3-(6-(1H-Tetrazol-5-yl)pyridin-3-yl)-2-((quinolin-2-ylthio)methyl)imidazo[1,2-b]pyridazin-8-yl)morpholine trifluoroacetic acid salt] | 1 | 2
O=C(O)c1cccc(-c2c(C#Cc3ccc4ccccc4n3)nc3c(N4CCOCC4)ccnn23)c1 [Cpd 88, 3-(8-Morpholino-2-(quinolin-2-ylethynyl)imidazo[1,2-b]pyridazin-3-yl)benzoic acid trifluoroacetic acid salt] | < 1 | < 1

Other lines, results leading:

IC50 [1] [nM] | IC50 [2] [nM] | SMILES
3 | 5 | O=C(O)CCC(=O)N1CCN(c2c(/C=C/c3ccc4ccccc4n3)nc3c(N4CCOCC4)ccnn23)CC1 [compound 155, (E)-4-(4-(8-Morpholino-2-(2-(quinolin-2-yl)vinyl)imidazo[1,2-b]pyridazin-3-yl)piperazin-1-yl)-4-oxobutanoic acid]
5 | 8 | CS(=O)(=O)Nc1ccc(-c2c(CCc3ccc4ccccc4n3)nc3c(N4CCOCC4)ccnn23)cc1 [compound 45, N-(4-(8-Morpholino-2-(2-(quinolin-2-yl)ethyl)imidazo[1,2-b]pyridazin-3-yl)phenyl)methanesulfonamide]
4 | 3 | CS(=O)(=O)NC(=O)C1CCN(c2c(/C=C/c3ccc4ccccc4n3)nc3c(N4CCOCC4)ccnn23)CC1 [compound 153, (E)-N-(Methylsulfonyl)-1-(8-morpholino-2-(2-(quinolin-2-yl)vinyl)imidazo[1,2-b]pyridazin-3-yl)piperidine-4-carboxamide]
4 | 7 | NS(=O)(=O)c1ccc(-c2c(CCc3ccc4ccccc4n3)nc3c(N4CCOCC4)ccnn23)cc1 [compound 38, 4-(8-Morpholino-2-(2-(quinolin-2-yl)ethyl)imidazo[1,2-b]pyridazin-3-yl)benzenesulfonamide]
2 | < 1 | Oc1c(F)cc(-c2c(/C=C/c3ccc4ccccc4n3)nc3c(N4CCOCC4)ccnn23)cc1F [compound 80, (E)-2,6-Difluoro-4-(8-morpholino-2-(2-(quinolin-2-yl)vinyl)imidazo[1,2-b]pyridazin-3-yl)phenol]
< 1 | < 1 | COc1cc(-c2c(C#Cc3ccc4ccccc4n3)nc3c(N4CCOCC4)ccnn23)ccc1C(=O)O [compound 91, 2-Methoxy-4-(8-morpholino-2-(quinolin-2-ylethynyl)imidazo[1,2-b]pyridazin-3-yl)benzoic acid]
2 | 2 | O=C(O)c1ccc(-c2c(/C=C/c3ccc4ccccc4n3)nc3c(N4CCOCC4)ccnn23)nc1 [compound 113, (E)-6-(8-Morpholino-2-(2-(quinolin-2-yl)vinyl)imidazo[1,2-b]pyridazin-3-yl)nicotinic acid]
3 | 3 | O=C(O)c1ccc(-c2c(/C=C/c3ccc4ccccc4n3)nc3c(N4CCOCC4)ccnn23)cc1O [compound 63, (E)-2-Hydroxy-4-(8-morpholino-2-(2-(quinolin-2-yl)vinyl)imidazo[1,2-b]pyridazin-3-yl)benzoic acid]
